According to US12358983B2, “Combination of anti CD19 antibody with a BCL-2 inhibitor and uses thereof” (Incyte Corporation, priority 2016, dated 2025):

Test system: MEC-1 cells
Assay: Cytotoxicity (ADCC assay with NK effector cells) of MOR00208 and venetoclax alone and in combination in MEC-1 cells
Format: cell-based
Description: Cell lines tested: MEC-1 cells (DSMZ# ACC497). Culture conditions of cell lines used are according to supplier's information. Cell Medium: lscove's Modified Dulbecco's Medium (IMDM), Invitrogen, Cat No.: 31980; RPMI1640, Invitrogen, Cat No.: 31870; GlutaMAX, Invitrogen, CAT No.: 35050; FCS: Sigma CAT No.: F7524 LOT No.: 111M3396. NKs: RPMI1640, with GlutaMAX, Invitrogen, Cat No.: 31870, 10% FCS; Biocoll: Biochrome AG CAT No.: L6115 LOT No.: 0034D; MACS NK cell isolation kit: Miltenyi Biotec CAT No.: 130-092-657 LOT No.: 5150402327; venetoclax: Selleck Chem. CAT No.: S8048 LOT No.: S804803; FCS: Sigma CAT No.: F7524 LOT No.: 111M3396; and RefmAb33 (anti-RSV) with same Fc region as MOR00208.
The cytotoxic potential of MOR00208 and venetoclax alone and in combination were tested in the MEC-1 cell line (CLL). Target cell killing is measured using the following parameters: venetoclax mono treatment at concentrations of 3 μM, 6.5 μM, and 10 μM; MOR00208 mono treatment at concentrations of 0.01 pM, 0.1 pM, 1 pM, 10 pM, 100 pM and 10 nM, and the combination treatment of the listed venetoclax and MOR00208 concentrations. The following are used as controls: RefnnAb33, NK cells alone, MEC-1 cells alone or DMSO. In the venetoclax mono groups as well as in the MOR00208+venetoclax combination groups, target cells were pretreated with venetoclax or with DMSO control for 24 hours followed by removal of the dead cells prior to the ADCC assay. A dead cell removal kit was used to remove cells killed by the cytotoxic effect of venetoclax. The dead cell removal kit was implemented to mimick the removal of dead cells that also occurs in vivo and to prevent false negative interference of the dead cells with the subsequent ADCC assay. For the ADCC assay, target cells are counted and stained using CFSE at a final concentration of 1 μg/mL. For the control group, i.e. DMSO treated target cells, the effector: target (E:T) cell ratio was adjusted to 2:1, i.e. 1×10E6/nnL effector cells (NK cells) and 5×10E5/mL target cells (MEC-1 cells). […] The ADCC assays were performed as follows: using 96 well plates, 100 μL of MEC-1 target cell suspension was added per well, followed by 100 μL NK effector cell suspension per well. Mixed cell suspensions were centrifuged and resuspended in 100 μL antibody containing medium or the according control solution. The antibodies were diluted in a range of 10 nM-0.01 pM (corresponds to 1.5 μg/mL-1.5 pg/mL) in medium. The ADCC assays were incubated for 2 hours in a CO2-incubator at 37° C. After 10 minutes incubation on ice, 50 μL DAPI solution was added to each well (final concentration 1 μg/mL) and incubated for additional 10 minutes on ice. The ADCC measurements were performed on a BD FACSVerse instrument. Dead target cells were identified as DAPI positive cells.
Combination Index (CI) calculations are completed in order to determine synergy of the combination of the exemplified anti-CD19 antibody and venetoclax as compared to MOR00208 and venetoclax alone. Such calculations are described in Ting-Chao Chou, Theoretical Basis, Experimental Design, and Computerized Simulation of Synergism and Antagonism in Drug Combination Studies, Pharmacol Rev 58:621-681 (2006), which is incorporated by reference in its entirety and Chou TC, Talalay P, Quantitative analysis of dose-effect relationships: the combined effects of multiple drugs or enzyme inhibitors. Adv Enzyme Regul 22: 27-55 (1984), which is incorporated by reference in its entirety. The methods of Chou-Talalay are carried out using the CI-isobol method.
The median-effect equation models the effect of an inhibitor (such as a drug) as Fa/Fu=(D/D50)^m, where D is the dose, Fa and Fu is the fraction of the system affected and unaffected by the dose D (Fa+Fu=1); D50 is the dose producing the median effect (e.g. IC50, ED50, LD50). The constant m determines the shape of the dose-effect curve.

“MOR00208: anti-CD19 antibody; heavy chain SEQ ID NO: 14, light chain SEQ ID NO: 15” was tested, and the “Theoretical MOR00208 Dose” value (Exp 2, same effect as MOR00208 1.50E−02 μg/mL + venetoclax 6.5 μM) was “* 1.00E+03^ μg/mL”, the “Theoretical MOR00208 Dose” value (Exp 2, same effect as MOR00208 1.50E−02 μg/mL + venetoclax 10.0 μM) was “* 1.00E+03^ μg/mL” and the “Theoretical MOR00208 Dose” value (Exp 2, same effect as MOR00208 1.50E−03 μg/mL + venetoclax 3.0 μM) was 0.00188 µg/mL. The “Theoretical MOR00208 Dose” value (Exp 2, same effect as MOR00208 1.50E−03 μg/mL + venetoclax 6.5 μM) was 0.01 µg/mL, the “Theoretical MOR00208 Dose” value (Exp 2, same effect as MOR00208 1.50E−03 μg/mL + venetoclax 10.0 μM) was “* 1.00E+03^ μg/mL” and the “Theoretical MOR00208 Dose” value (Exp 2, same effect as MOR00208 1.50E−04 μg/mL + venetoclax 3.0 μM) was 0.000155 µg/mL. For the same substance, the “Theoretical MOR00208 Dose” value (Exp 2, same effect as MOR00208 1.50E−04 μg/mL + venetoclax 6.5 μM) was 0.000591 µg/mL, the “Theoretical MOR00208 Dose” value (Exp 2, same effect as MOR00208 1.50E−04 μg/mL + venetoclax 10.0 μM) was 0.00289 µg/mL and the “Theoretical MOR00208 Dose” value (Exp 2, same effect as MOR00208 1.50E−05 μg/mL + venetoclax 3.0 μM) was 1.94e-05 µg/mL. For the same substance, the “Theoretical MOR00208 Dose” value (Exp 2, same effect as MOR00208 1.50E−05 μg/mL + venetoclax 6.5 μM) was 0.000109 µg/mL, the “Theoretical MOR00208 Dose” value (Exp 2, same effect as MOR00208 1.50E−05 μg/mL + venetoclax 10.0 μM) was 0.000725 µg/mL and the “Theoretical MOR00208 Dose” value (Exp 2, same effect as MOR00208 1.50E−06 μg/mL + venetoclax 6.5 μM) was 2.9e-05 µg/mL. The “Theoretical MOR00208 Dose” value (Exp 2, same effect as MOR00208 1.50E−06 μg/mL + venetoclax 10.0 μM) was 0.000145 µg/mL, the “Actual MOR00208 Effect” value (Exp 3, MOR00208 1.50E+00 μg/mL) was 74.8 % dead cells and the “Actual MOR00208 Effect” value (Exp 3, MOR00208 1.50E−02 μg/mL) was 69.1 % dead cells. The “Actual MOR00208 Effect” value (Exp 3, MOR00208 1.50E−03 μg/mL) was 45.3 % dead cells, the “Actual MOR00208 Effect” value (Exp 3, MOR00208 1.50E−04 μg/mL) was 26.6 % dead cells and the “Actual MOR00208 Effect” value (Exp 3, MOR00208 1.50E−05 μg/mL) was 18.9 % dead cells. The “Actual MOR00208 Effect” value (Exp 3, MOR00208 1.50E−06 μg/mL) was 11.8 % dead cells, the “Theoretical MOR00208 Dose” value (Exp 3, same effect as MOR00208 1.50E+00 μg/mL + venetoclax 3.0 μM) was “* 1.00E+03^ μg/mL” and the “Theoretical MOR00208 Dose” value (Exp 3, same effect as MOR00208 1.50E+00 μg/mL + venetoclax 6.5 μM) was “* 1.00E+03^ μg/mL”. For the same substance, the “Theoretical MOR00208 Dose” value (Exp 3, same effect as MOR00208 1.50E+00 μg/mL + venetoclax 10.0 μM) was “* 1.00E+03^ μg/mL”, the “Theoretical MOR00208 Dose” value (Exp 3, same effect as MOR00208 1.50E−02 μg/mL + venetoclax 3.0 μM) was 0.279 µg/mL and the “Theoretical MOR00208 Dose” value (Exp 3, same effect as MOR00208 1.50E−02 μg/mL + venetoclax 6.5 μM) was “* 1.00E+03^ μg/mL”. The “Theoretical MOR00208 Dose” value (Exp 3, same effect as MOR00208 1.50E−02 μg/mL + venetoclax 10.0 μM) was “* 1.00E+03^ μg/mL”, the “Theoretical MOR00208 Dose” value (Exp 3, same effect as MOR00208 1.50E−03 μg/mL + venetoclax 3.0 μM) was 0.00152 µg/mL and the “Theoretical MOR00208 Dose” value (Exp 3, same effect as MOR00208 1.50E−03 μg/mL + venetoclax 6.5 μM) was 0.00652 µg/mL. For the same substance, the “Theoretical MOR00208 Dose” value (Exp 3, same effect as MOR00208 1.50E−03 μg/mL + venetoclax 10.0 μM) was “* 1.00E+03^ μg/mL”, the “Theoretical MOR00208 Dose” value (Exp 3, same effect as MOR00208 1.50E−04 μg/mL + venetoclax 3.0 μM) was 0.000218 µg/mL and the “Theoretical MOR00208 Dose” value (Exp 3, same effect as MOR00208 1.50E−04 μg/mL + venetoclax 6.5 μM) was 0.000602 µg/mL. For the same substance, the “Theoretical MOR00208 Dose” value (Exp 3, same effect as MOR00208 1.50E−04 μg/mL + venetoclax 10.0 μM) was 0.0042 µg/mL, the “Theoretical MOR00208 Dose” value (Exp 3, same effect as MOR00208 1.50E−05 μg/mL + venetoclax 3.0 μM) was 2.9e-05 µg/mL and the “Theoretical MOR00208 Dose” value (Exp 3, same effect as MOR00208 1.50E−05 μg/mL + venetoclax 6.5 μM) was 0.000157 µg/mL. For the same substance, the “Theoretical MOR00208 Dose” value (Exp 3, same effect as MOR00208 1.50E−05 μg/mL + venetoclax 10.0 μM) was 0.000983 µg/mL, the “Theoretical MOR00208 Dose” value (Exp 3, same effect as MOR00208 1.50E−06 μg/mL + venetoclax 6.5 μM) was 2.67e-05 µg/mL and the “Theoretical MOR00208 Dose” value (Exp 3, same effect as MOR00208 1.50E−06 μg/mL + venetoclax 10.0 μM) was 0.000371 µg/mL. For the same substance, the “Effect in ADCC cell killing assays (in words)” value (very low doses of MOR00208) was “little or no effect”.
